Measurements taken from ChEMBL document CHEMBL4433200, “Another look at phenolic compounds in cancer therapy the effect of polyphenols on ubiquitin-proteasome system” (Eur J Med Chem, 2019).
Converted amounts (≈) assume the structure as drawn.

What was measured:
[1] = molecular target: T1, Proteasome Macropain subunit MB1 (Homo sapiens, UniProt P28074); assay: Inhibition of chymotrypsin-like activity of purified human 20S proteasome expressed in human Jurkat cells assessed as decrease in AMC hydrolysis using Suc-Leu-Leu-Val-Tyr-AMC as substrate incubated for 2 hrs by fluorescence based method
T1 sequence (P28074 whole entry): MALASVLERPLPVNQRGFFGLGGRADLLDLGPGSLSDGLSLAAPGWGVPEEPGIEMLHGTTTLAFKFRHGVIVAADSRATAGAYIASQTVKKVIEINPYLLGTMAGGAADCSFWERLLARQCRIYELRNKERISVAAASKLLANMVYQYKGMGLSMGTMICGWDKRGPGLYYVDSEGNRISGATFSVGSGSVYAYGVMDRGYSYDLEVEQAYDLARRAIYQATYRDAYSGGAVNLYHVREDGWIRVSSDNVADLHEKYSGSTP

[2] = molecular target: T1, Proteasome Macropain subunit MB1; assay: Inhibition of chymotrypsin-like activity of human 26S proteasome in human Jurkat cells assessed as decrease in AMC hydrolysis using Z-Gly-Gly-Leu-AMC as substrate after 24 hrs by fluorescence based method; format: cell-based
[3] = molecular target: T1, Proteasome Macropain subunit MB1; assay: Inhibition of chymotrypsin-like activity of purified human erythrocyte 20S proteasome assessed as decrease in AMC hydrolysis using Suc-LLVY-AMC as substrate preincubated for 10 mins and measured by fluorescence based method
[4] = Inhibition of chymotrypsin-like activity of rabbit 20S proteasome assessed as AMC hydrolysis using Suc-LLVY-AMC as substrate incubated for 2hrs by fluorescence based method; design: species or system Oryctolagus cuniculus
[5] = molecular target: T2, Proteasome subunit beta type-5 (Rattus norvegicus, UniProt P28075); assay: Inhibition of chymotrypsin-like activity of rat liver 26 proteasome assessed as decrease in fluorescence using succinyl-Leu-Leu-Val-Tyr-4-methylcoumaryl-7-amide as substrate preincubated for 30 mins followed by addition of substrate and measured after 1 hr by fluorescence based method
T2 sequence (P28075 whole entry): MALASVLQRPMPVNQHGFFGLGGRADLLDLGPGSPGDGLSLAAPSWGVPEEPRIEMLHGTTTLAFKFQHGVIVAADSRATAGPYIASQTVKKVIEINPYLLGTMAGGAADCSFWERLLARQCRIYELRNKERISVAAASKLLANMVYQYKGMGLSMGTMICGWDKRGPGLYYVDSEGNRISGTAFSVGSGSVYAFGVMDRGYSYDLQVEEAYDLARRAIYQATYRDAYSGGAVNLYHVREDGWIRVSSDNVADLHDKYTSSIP

[6] = molecular target: T1, Proteasome Macropain subunit MB1; assay: Inhibition of chymotrypsin-like activity of purified human 20S proteasome assessed as decrease in AMC hydrolysis using Suc-Leu-Leu-Val-Tyr-AMC as substrate incubated for 30 mins by fluorometric analysis
[7] = Inhibition of chymotrypsin-like activity of purified rabbit 20S proteasome assessed as decrease in AMC hydrolysis using Suc-Leu-Leu-Val-Tyr-AMC as substrate incubated for 30 mins by fluorescence based method; design: species or system Oryctolagus cuniculus
[8] = molecular target: T1, Proteasome Macropain subunit MB1; assay: Inhibition of chymotrypsin-like activity of human 26S proteasome extracted from human LNCap cells assessed as decrease in AMC hydrolysis using Suc-Leu-Leu-Val-Tyr-AMC as substrate incubated for 60 mins by fluorescence based method; format: cell-free
[9] = molecular target: T1, Proteasome Macropain subunit MB1; assay: Inhibition of chymotrypsin-like activity of human 26S proteasome in human Jurkat cells assessed as decrease in AMC hydrolysis using […] as substrate preincubated for 12 hrs followed by addition of substrate and measured after 2 hrs by fluorometric analysis; format: cell-based
[10] = molecular target: T1, Proteasome Macropain subunit MB1; assay: Inhibition of chymotrypsin-like activity of human 26S proteasome extracted from human Jurkat cells assessed as decrease in AMC hydrolysis using […] as substrate after 90 mins by fluorometric analysis; format: cell-free

SMILES: O=c1c(O)c(-c2ccc(O)cc2)oc2cc(O)cc(O)c12 [KAEMPFEROL]
- IC50 [1]: 10.5 µM
- IC50 [2]: 11 µM

SMILES: COc1ccc2c(c1)O[C@H]1c3ccc(O)cc3OC[C@@H]21
- IC50 [3]: > 100 µM

SMILES: COc1cc(/C=C/C(=O)CC(=O)/C=C/c2ccc(O)c(OC)c2)ccc1O [CURCUMIN]
- IC50 [4]: 1.85 µM

SMILES: O=C1C[C@@H](c2ccc(O)c(O)c2)Oc2cc(O)cc(O)c21 [ERIODICTYOL]
- IC50 [1]: 16.2 µM
- IC50 [2]: 14.6 µM

SMILES: O=c1cc(-c2ccccc2)oc2cc(O)cc(O)c12 [CHRYSIN]
- IC50 [1]: 4.9 µM
- IC50 [2]: 6.1 µM

SMILES: C=CC(/C=C\c1ccc(O)cc1)c1ccc(O)cc1 (configuration not stated)
- IC50 [5]: 0.018 µg/mL (≈ 0.0713 µM)

SMILES: O=c1c(O)c(-c2ccc(O)c(O)c2)oc2cc(O)cc(O)c12 [QUERCETIN]
- IC50 [1]: 3.5 µM
- IC50 [2]: 2 µM

SMILES: COc1cc(O)ccc1CCCc1ccc(O)cc1 [BROUSSONIN B]
- IC50 [5]: 0.046 µg/mL (≈ 0.178 µM)

SMILES: Oc1cc(O)c2c(c1)O[C@H](c1cc(O)c(O)c(O)c1)[C@H](O)C2 [EPIGALLOCATECHIN]
- IC50 [6]: 1200 µM

SMILES: COc1cc(O)c(C(=O)c2ccc(O)cc2)c(O)c1
- IC50 [5]: > 0.25 µg/mL

SMILES: O=C1C[C@@H](c2ccc(O)cc2)Oc2cc(O)cc(O)c21 [NARINGENIN]
- IC50 [1]: 48.8 µM
- IC50 [2]: 41.6 µM

SMILES: O=C(O[C@@H]1Cc2c(O)cc(O)cc2O[C@H]1c1cc(O)c(O)c(O)c1)c1cc(O)c(O)c(O)c1 [GALLOCATECHIN GALLATE]
- IC50 [6]: 0.187 µM

SMILES: O=C(O[C@@H]1Cc2c(O)cc(O)cc2O[C@H]1c1ccc(O)c(O)c1)c1cc(O)c(O)c(O)c1 [(-)-CATECHINGALLATE]
- IC50 [6]: 0.124 µM

SMILES: O=c1c(-c2ccc(O)cc2)coc2cc(O)ccc12 [DAIDZEIN]
- IC50 [3]: > 100 µM

SMILES: O=c1cc(-c2ccc(O)c(O)c2)oc2cc(O)cc(O)c12 [LUTEOLIN]
- IC50 [1]: 1.5 µM
- IC50 [2]: 1.3 µM

SMILES: O=c1cc(-c2ccc(O)cc2)oc2cc(O)cc(O)c12 [APIGENIN]
- IC50 [1]: 1.8 to 2.3 µM
- IC50 [2]: 1 to 1.9 µM

SMILES: O=C1C[C@@H](c2ccc(O)cc2)Oc2cc(O)ccc21 [LIQUIRTIGENIN]
- IC50 [3]: > 100 µM

SMILES: O=c1c(-c2ccc(O)cc2)coc2cc(O)cc(O)c12 [GENISTEIN]
- IC50 [3]: 9.26 µM
- IC50 [7]: 26 µM
- IC50 [8]: 65 to 70 µM

SMILES: O=C(O)c1cc(O)c(O)c(O)c1 [GALLIC ACID]
- IC50 [6]: 7100 µM

SMILES: O=c1c(O)c(-c2cc(O)c(O)c(O)c2)oc2cc(O)cc(O)c12 [MYRICETIN]
- IC50 [1]: 10 µM
- IC50 [2]: 12 µM

SMILES: O=C(O[C@@H]1Cc2c(O)cc(O)cc2O[C@@H]1c1ccc(O)c(O)c1)c1cc(O)c(O)c(O)c1 [EPICATECHIN GALLATE]
- IC50 [6]: 0.194 µM

SMILES: O=C(/C=C/c1ccc(O)cc1)c1ccc(O)cc1O [ISOLIQUIRITIGENIN]
- IC50 [3]: 4.88 µM

SMILES: Oc1ccc(CC2COc3cc(O)ccc3C2)cc1 (configuration not stated)
- IC50 [5]: 0.06 µg/mL (≈ 0.234 µM)

SMILES: COc1ccc(-c2coc3cc(O)ccc3c2=O)cc1 [FORMONONETIN]
- IC50 [3]: > 100 µM

SMILES: O=C(O[C@@H]1Cc2c(O)cc(O)cc2O[C@@H]1c1cc(O)c(O)c(O)c1)c1cc(O)c(O)c(O)c1 [EPIGALOCATECHIN GALLATE]
- IC50 [9]: 18 µM
- IC50 [6]: 0.086 to 0.194 µM
- IC50 [10]: 1 to 10 µM
